Test results: patent publication US20220324851A1, “AMINE-SUBSTITUTED HETEROCYCLIC COMPOUNDS AS EHMT2 INHIBITORS, SALTS THEREOF, AND METHODS OF SYNTHESIS THEREOF” (Epizyme, Inc., priority 2017, published 2022)
Counter-ions that a name gives are not always drawn. Each block holds one compound with its values, some of them ahead of it.

Key:
Assay type in all cases: physicochemical
[1] = DVS water uptake / hygroscopicity; conditions: for hygroscopicity (in words): conclusion from DVS where run
[2] = XRPD before and after DVS (form change); conditions: state of sample post DVS
[3] = stressing at 40° C./75% RH (form change)
[4] = appearance under ambient condition; conditions: wet solid under ambient condition; not tested by TGA/DSC

SMILES: CNc1cc(C)nc(Nc2cnc(OC)c(OC[C@@H]3CCN(C)C3)c2)n1 [Compound 1R Hydrochloride Salt Type A]
water uptake (DVS) ([1]; at 25° C./80% RH): ~8%
hygroscopicity (in words) [1]: hygroscopic
form change after DVS [2]: No change in XRPD pattern

SMILES: CNc1cc(C2CCOCC2)c2cc(OC)c(OCCCN3CCCC3)cc2n1 [Compound 2 Freebase Type A]
hygroscopicity (in words) [1]: slightly hygroscopic
water uptake (DVS) ([1]; from 0% to 80% RH): around 1.0%
form change after DVS [2]: No form change

SMILES: CNc1cc(C)nc(Nc2ccc(OC)c(CNCCN3CCCC3)c2)n1 [Compound 3 Freebase Type A]
hygroscopicity (in words) [1]: hygroscopic
water uptake (DVS) ([1]; from 0% to 80% RH): around 12.9%
form change after DVS [2]: No form change

SMILES: CNc1cc(C)nc(Nc2ccc(OC)c(CNCCN3CCCC3)c2)n1 [Compound 3 Glycolate Salt Type B]
water uptake (DVS) ([1]; from 0% to 80% RH): around 45.3%
form change after DVS [2]: deliquescence

SMILES: CNc1cc(C)nc(Nc2ccc(OC)c(CNCCN3CCCC3)c2)n1 [Compound 3 Hydrochloride Salt Type A]
form change after DVS [2]: new hydrate form

SMILES: CNc1cc(C)nc(Nc2ccc(OC)c(CNCCN3CCCC3)c2)n1 [Compound 3 Hydrochloride Salt Type B]
water uptake (DVS) ([1]; at 25° C./80% RH): 15.3%
hygroscopicity (in words) [1]: hygroscopic
form change after DVS [2]: change of XRPD pattern was observed

SMILES: CNc1cc(C)nc(Nc2ccc(OC)c(CNCCN3CCCC3)c2)n1 [Compound 3 Sulfate Sate Type A]
water uptake (DVS) ([1]; at 25° C./80% RH): 20.5%
hygroscopicity (in words) [1]: highly hygroscopic
form change after DVS [2]: No significant form change

SMILES: CNc1cc(C)nc(Nc2ccc(OC)c(OC[C@H](O)CN3CCCC3)c2)n1 [Compound 4R Freebase Type C]
hygroscopicity (in words) [1]: hygroscopic
water uptake (DVS) ([1]; from 0% to 80% RH): around 8.7%
form change after DVS [2]: No form change

SMILES: CNc1cc(C)nc(Nc2ccc(OC)c(OC[C@H](O)CN3CCCC3)c2)n1 [Compound 4R Hydrochloride Salt Type A]
hygroscopicity (in words) [1]: hygroscopic
water uptake (DVS) ([1]; from 50% RH to 80% RH at 25° C.): around 4%
form change after DVS [2]: change of XRPD pattern was observed

SMILES: CNc1cc(C)nc(Nc2ccc(OC)c(OC[C@H](O)CN3CCCC3)c2)n1 [Compound 4R Hydrochloride Salt Type B]
hygroscopicity (in words) [1]: very hygroscopic
water uptake (DVS) ([1]; from 0% to 80% RH): around 17.4%
form change after DVS [2]: No form change

SMILES: CNc1cc(C)nc(Nc2ccc(OC)c(OC[C@H](O)CN3CCCC3)c2)n1 [Compound 4R Succinate Salt Type A]
hygroscopicity (in words) [1]: hygroscopic
water uptake (DVS) ([1]; from 0% to 80% RH): around 9.6%
form change after DVS [2]: No form change

Continued, in another order:

water uptake (DVS) ([1]; at 25° C./80% RH): 7.6%
hygroscopicity (in words) [1]: hygroscopic
form change after DVS [2]: No significant form change
SMILES: CNc1cc(C)nc(Nc2ccc(OC)c(OC[C@H](O)CN3CCC3)c2)n1 [Compound 5R Fumarate Salt Type A]

form change after stressing [3]: No form change
SMILES: CNc1cc(C)nc(Nc2ccc(OC)c(OC[C@H](O)CN3CCC3)c2)n1 [Compound 5R Gentisate Salt Type E]

water uptake (DVS) ([1]; at 25° C./80% RH): 2.6%
hygroscopicity (in words) [1]: hygroscopic
form change after DVS [2]: No significant form change
SMILES: CNc1cc(C)nc(Nc2ccc(OC)c(OC[C@H](O)CN3CCC3)c2)n1 [Compound 5R Hippurate Salt Type A]

hygroscopicity (in words) [1]: hygroscopic
water uptake (DVS) ([1]; from 0% to 80% RH): around 8.8%
SMILES: CNCc1cnn(-c2cc(Nc3nc(C)cc(NC)n3)ccc2OC)c1 [Compound 6 Adipate Salt Type B]
form change after DVS [2]: form change from Compound 6 Adipate Salt Type B to Compound 6 Adipate Salt Type A

hygroscopicity (in words) [4]: high hygroscopicity
SMILES: CNCc1cnn(-c2cc(Nc3nc(C)cc(NC)n3)ccc2OC)c1 [Compound 6 Glycolate Salt Type A]

hygroscopicity (in words) [1]: very hygroscopic
water uptake (DVS) ([1]; from 0% to 80% RH): around 19.4%
form change after DVS [2]: Form change was observed
SMILES: CNCc1cnn(-c2cc(Nc3nc(C)cc(NC)n3)ccc2OC)c1 [Compound 6 Hydrochloride Salt Type A]

hygroscopicity (in words) [1]: hygroscopic
water uptake (DVS) ([1]; from 0% to 80% RH): around 4.4%
form change after DVS [2]: No form change
SMILES: CNCc1cnn(-c2cc(Nc3nc(C)cc(NC)n3)ccc2OC)c1 [Compound 6 freebase Type A]

hygroscopicity (in words) [1]: low hygroscopicity
SMILES: CNCc1cnn(-c2c(OC)ccc(Nc3nc(C)cc(NC)n3)c2F)c1 [Compound 7 Fumarate Salt Type A]

water uptake (DVS) ([1]; from 0% to 80% RH): around 1.9%
SMILES: CNCc1cnn(-c2c(OC)ccc(Nc3nc(C)cc(NC)n3)c2F)c1 [Compound 7 Fumarate Salt Type C]
